The term IC50 denotes the point on the concentration scale where inhibition reaches its midpoint.

We go through 20 compounds from patent US10669269B2, “Substituted N-(1H-indazol-4-yl)imidazo[1,2-a]pyridine-3-carboxamide compounds as type III receptor tyrosine kinase inhibitors” (ARRAY BIOPHARMA INC., priority 2010, dated 2020).

Molecules are shown by their SMILES. Structures can show the parent of a compound that is named as a salt.

One test addresses T1, cFMS (Homo sapiens, UniProt P07333).
T1 construct: THP-1 cells (human acute monocytic leukemia cell line) were serum-starved for 4 hours; endogenous in cells; host or cells: THP-1 cells (human acute monocytic leukemia cell line)
In words: cFMS Cell-Based Assay (Example C). The conditions noted are these: averaged IC50; phospho-cFMS in THP-1 cells stimulated with 250 ng/mL recombinant human MCSF; read-out: cFMS Cell ELISA IC50. The procedure, abridged: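 Phosphotyrosine on cFMS, captured from lysates and quantified by ELISA, reads receptor activation after 1 min of 250 ng/mL human MCSF. Beforehand, THP-1 cells were serum-starved for 4 h and exposed to compound for 1 h (9 points, 3-fold, typically up to 5,000 nM). IC50 from a 4-parameter logistic fit as 50 percent of control.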
For orientation: An ELISA detects its analyte on a solid surface through an enzyme-linked reagent.

The target in test [1] is T2, PDGFR beta (Homo sapiens, UniProt P09619).
T2 construct: endogenous in cells; host or cells: HS27 human fibroblast cell line
T2 sequence (P09619 33-1106): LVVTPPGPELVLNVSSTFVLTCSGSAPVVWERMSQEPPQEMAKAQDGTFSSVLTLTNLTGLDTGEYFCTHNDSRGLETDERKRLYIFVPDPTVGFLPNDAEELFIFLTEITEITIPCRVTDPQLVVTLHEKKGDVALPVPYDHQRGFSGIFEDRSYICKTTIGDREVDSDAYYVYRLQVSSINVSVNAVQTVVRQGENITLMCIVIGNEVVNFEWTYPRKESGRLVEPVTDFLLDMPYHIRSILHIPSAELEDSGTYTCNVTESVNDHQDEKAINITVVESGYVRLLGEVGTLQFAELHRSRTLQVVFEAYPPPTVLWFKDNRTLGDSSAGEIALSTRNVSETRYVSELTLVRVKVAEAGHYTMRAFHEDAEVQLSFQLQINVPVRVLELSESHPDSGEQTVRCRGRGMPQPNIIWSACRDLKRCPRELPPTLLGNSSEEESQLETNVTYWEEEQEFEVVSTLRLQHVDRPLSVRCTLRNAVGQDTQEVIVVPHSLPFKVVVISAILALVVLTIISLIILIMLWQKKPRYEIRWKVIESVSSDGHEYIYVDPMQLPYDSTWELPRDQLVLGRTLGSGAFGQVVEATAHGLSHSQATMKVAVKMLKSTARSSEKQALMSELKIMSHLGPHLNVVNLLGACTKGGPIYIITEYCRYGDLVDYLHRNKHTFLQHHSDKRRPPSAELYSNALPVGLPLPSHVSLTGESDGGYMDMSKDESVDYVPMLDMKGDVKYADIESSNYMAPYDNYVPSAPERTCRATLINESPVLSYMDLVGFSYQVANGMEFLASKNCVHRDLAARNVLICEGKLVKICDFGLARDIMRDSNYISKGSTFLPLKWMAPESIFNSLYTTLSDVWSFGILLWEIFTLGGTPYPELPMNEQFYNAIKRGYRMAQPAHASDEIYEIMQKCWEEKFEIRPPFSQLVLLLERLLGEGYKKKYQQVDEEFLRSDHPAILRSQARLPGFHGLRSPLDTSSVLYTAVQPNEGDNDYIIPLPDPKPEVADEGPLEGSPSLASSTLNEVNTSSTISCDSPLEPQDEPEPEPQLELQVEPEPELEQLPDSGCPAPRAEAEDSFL
The test is described as follows: Phospho PDGFR Cell Assay, sandwich ELISA (Example A). As to conditions: averaged IC50, PDGFR beta phosphorylation in HS27 human fibroblast cell line, PDGF-BB stimulation 5 minutes. In kind it is cell-based. As to the method:
Compounds were screened for inhibition of PDGFR beta phosphorylation in the HS27 human fibroblast cell line. Cells were seeded into a 96 well tissue culture plate, then incubated overnight in a 37° C., 5% CO2 incubator. The following day, cells were treated for one hour with test compound dilutions. After stimulation with PDGF-BB ligand for 5 minutes, cells were lysed and added to a sandwich ELISA plate from R&D Systems to detect levels of phospho PDGFR beta. A standard 4-parameter logistic model was fit to the inhibitor dose response curves, with the IC50 being defined as the concentration of inhibitor giving 50 percent of control (POC).

Another test addresses T3, c-KIT (Homo sapiens, UniProt P10721).
T3 construct: M-07e cells (human acute megakaryoblastic leukemia cell line) were serum-starved for 4 hours; endogenous in cells; host or cells: M-07e cells (human acute megakaryoblastic leukemia cell line)
In words: c-KIT Cell-Based Assay (Example D). As to conditions: averaged IC50; phospho-c-KIT in M-07e cells stimulated with 150 ng/ml recombinant human SCF; read-out: cKIT Cell ELISA IC50. The gist of the method: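 Phospho-c-KIT ELISA readout, calibrated with purified phospho-SCF R, gave IC50 (4-parameter fit, 50% of control). Before lysis, M-07e cells were starved 4 h, exposed 1 h to a 9-point 3-fold series (highest usually 5,000 nM), and stimulated with 150 ng/ml SCF for 4 min.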

In test [2] the target is T2, PDGFR beta. The test is described as follows: Phospho PDGFR LICOR Cell Assay (Example B). The format is cell-based. The conditions noted are these: averaged IC50; PDGFR beta phosphorylation in HS27 human fibroblast cell line, PDGF-BB stimulation 10 minutes, normalized to total ERK. The procedure, abridged:
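Read-out is in-cell phospho-PDGFRβ/total-ERK infrared immunofluorescence in HS27 fibroblasts. Cells got 1 h compound exposure before a 10 min PDGF-BB challenge. A 4-parameter logistic fit gave IC50 as the concentration yielding 50 percent of control.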

T3 sequence (P10721 26-976): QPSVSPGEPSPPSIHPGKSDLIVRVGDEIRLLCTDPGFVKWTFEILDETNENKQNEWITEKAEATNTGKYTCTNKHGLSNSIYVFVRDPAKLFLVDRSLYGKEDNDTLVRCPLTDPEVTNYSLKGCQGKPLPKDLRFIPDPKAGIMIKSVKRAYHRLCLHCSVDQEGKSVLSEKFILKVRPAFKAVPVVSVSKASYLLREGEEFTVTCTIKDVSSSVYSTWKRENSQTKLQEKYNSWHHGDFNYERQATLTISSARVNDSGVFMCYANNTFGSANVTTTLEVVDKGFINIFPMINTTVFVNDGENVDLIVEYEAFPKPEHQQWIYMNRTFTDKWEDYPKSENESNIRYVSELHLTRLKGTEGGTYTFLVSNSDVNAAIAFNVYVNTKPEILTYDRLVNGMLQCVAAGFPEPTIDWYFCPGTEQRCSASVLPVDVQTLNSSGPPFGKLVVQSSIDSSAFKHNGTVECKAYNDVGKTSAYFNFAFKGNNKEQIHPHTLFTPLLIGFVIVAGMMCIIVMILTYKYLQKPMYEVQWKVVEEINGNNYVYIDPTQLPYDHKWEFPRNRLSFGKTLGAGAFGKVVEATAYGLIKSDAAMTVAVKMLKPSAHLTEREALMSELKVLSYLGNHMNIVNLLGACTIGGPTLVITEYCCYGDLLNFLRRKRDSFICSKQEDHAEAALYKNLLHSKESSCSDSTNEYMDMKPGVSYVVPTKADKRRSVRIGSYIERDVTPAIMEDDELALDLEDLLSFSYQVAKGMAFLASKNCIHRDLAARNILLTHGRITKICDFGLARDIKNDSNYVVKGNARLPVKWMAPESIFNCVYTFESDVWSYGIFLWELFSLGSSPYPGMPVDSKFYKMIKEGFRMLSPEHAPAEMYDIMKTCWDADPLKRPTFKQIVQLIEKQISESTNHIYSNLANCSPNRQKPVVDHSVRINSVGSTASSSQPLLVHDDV
T1 sequence (P07333 20-972): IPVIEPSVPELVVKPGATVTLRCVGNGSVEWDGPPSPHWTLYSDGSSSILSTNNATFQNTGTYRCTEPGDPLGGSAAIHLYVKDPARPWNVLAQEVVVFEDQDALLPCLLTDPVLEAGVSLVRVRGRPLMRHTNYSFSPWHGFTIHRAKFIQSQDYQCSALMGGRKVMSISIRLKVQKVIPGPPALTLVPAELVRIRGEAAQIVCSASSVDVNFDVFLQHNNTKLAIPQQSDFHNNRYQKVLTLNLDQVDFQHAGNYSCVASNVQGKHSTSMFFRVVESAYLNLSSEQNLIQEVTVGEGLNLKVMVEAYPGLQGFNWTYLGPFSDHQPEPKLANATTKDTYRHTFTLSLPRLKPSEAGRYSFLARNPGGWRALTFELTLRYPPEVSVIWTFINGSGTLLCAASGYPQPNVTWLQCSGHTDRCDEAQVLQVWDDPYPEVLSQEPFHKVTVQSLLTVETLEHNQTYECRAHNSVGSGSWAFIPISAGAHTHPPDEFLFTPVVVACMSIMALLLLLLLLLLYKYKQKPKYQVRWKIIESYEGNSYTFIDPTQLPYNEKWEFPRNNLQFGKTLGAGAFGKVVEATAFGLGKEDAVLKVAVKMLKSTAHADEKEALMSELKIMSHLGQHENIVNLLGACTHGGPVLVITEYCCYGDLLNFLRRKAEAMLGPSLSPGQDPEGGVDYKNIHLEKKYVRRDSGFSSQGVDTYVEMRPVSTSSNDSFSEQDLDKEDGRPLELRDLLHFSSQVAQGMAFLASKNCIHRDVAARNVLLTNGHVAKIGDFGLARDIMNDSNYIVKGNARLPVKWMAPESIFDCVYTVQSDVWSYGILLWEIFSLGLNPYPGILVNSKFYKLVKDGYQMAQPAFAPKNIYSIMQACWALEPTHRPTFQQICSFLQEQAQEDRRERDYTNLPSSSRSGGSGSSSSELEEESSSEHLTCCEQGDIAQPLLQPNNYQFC

In the case of `Cc1cccc(Cn2nc(C)c3c(NC(=O)c4cnc5cc(C6=CCNCC6)ccn45)cccc32)n1` [Example 51, N-(3-methyl-1-((6-methylpyridin-2-yl)methyl)-1H-indazol-4-yl)-7-(1,2,3,6-tetrahydropyridin-4-yl)imidazo[1,2-a]pyridine-3-carboxamide hydrochloride], the IC50 at cFMS turned out to be 9.9 nM; against PDGFR beta [1] it was 394 nM; at c-KIT, 687 nM.

As to `CCC(C)c1cccc(Cn2nc(C)c3c(NC(=O)c4cnc5cc(OCCN6CCN(C)[C@@H](C)C6)ccn45)cccc32)n1` (stereo partly drawn) [Example 37, N-(1-((6-sec-butylpyridin-2-yl)methyl)-3-methyl-1H-indazol-4-yl)-7-(2-((S)-3,4-dimethylpiperazin-1-yl)ethoxy)imidazo[1,2-a]pyridine-3-carboxamide], the IC50 on cFMS was determined as 52.4 nM; at PDGFR beta [1], 102 nM; at c-KIT it was 62 nM.

In the case of `COCCOc1ccn2c(C(=O)Nc3cccc4c3c(C)nn4CC3CC3)cnc2c1` [Example 84, N-(1-(cyclopropylmethyl)-3-methyl-1H-indazol-4-yl)-7-(2-methoxyethoxy)imidazo[1,2-a]pyridine-3-carboxamide], the IC50 is 734 nM on cFMS, not below 1000 nM on PDGFR beta [1] and 5000 nM at c-KIT.

Consider `O=C(Nc1cccc2c1cnn2Cc1ccccc1)c1cnc2ccc(Br)cn12` [Example 155, N-(1-benzyl-1H-indazol-4-yl)-6-bromoimidazo[1,2-a]pyridine-3-carboxamide], for which the half-maximal inhibitory concentration (IC50) on cFMS stood at 114 nM; on PDGFR beta [1], 282 nM; on c-KIT, 76.2 nM.

Turning to `O=C(Nc1cccc2c1cnn2Cc1ccccc1)c1cnc2cc(C(O)CO)ccn12` (stereo not drawn) [Example 157, N-(1-benzyl-1H-indazol-4-yl)-7-(1,2-dihydroxyethyl)imidazo[1,2-a]pyridine-3-carboxamide], the figures for the IC50 at cFMS, against PDGFR beta [1] and at c-KIT were 105 nM, 275 nM and 232 nM, respectively.

Turning to `COCCOc1ccn2c(C(=O)Nc3cccc4c3c(C)nn4CC3CCOCC3)cnc2c1` [Example 83, 7-(2-methoxyethoxy)-N-(3-methyl-1-((tetrahydro-2H-pyran-4-yl)methyl)-1H-indazol-4-yl)imidazo[1,2-a]pyridine-3-carboxamide], the results for the IC50 on cFMS, against PDGFR beta [1] and on c-KIT were 538 nM, not below 1000 nM and 5000 nM, respectively.

For the compound `Cc1cccc(Cn2nc(C)c3c(NC(=O)c4cnc5cc(F)ccn45)cccc32)n1` [Example 53, 7-fluoro-N-(3-methyl-1-((6-methylpyridin-2-yl)methyl)-1H-indazol-4-yl)imidazo[1,2-a]pyridine-3-carboxamide], the IC50 was 73.5 nM on cFMS, not below 1000 nM at PDGFR beta [1] and 4580 nM at c-KIT.

With `Cc1cccc(Cn2nc(C)c3c(NC(=O)c4cnc5cc(-c6ccnn6C)ccn45)cccc32)n1` [Example 71, N-(3-methyl-1-((6-methylpyridin-2-yl)methyl)-1H-indazol-4-yl)-7-(1-methyl-1H-pyrazol-5-yl)imidazo[1,2-a]pyridine-3-carboxamide], the IC50 at cFMS was found to be 7.6 nM; against PDGFR beta [1], 274 nM; on c-KIT, 455 nM.

With `CC(C)N1CCN(CCOc2ccn3c(C(=O)Nc4cccc5c4c(Cl)nn5Cc4cccc(C5CC5)n4)cnc3c2)CC1` [Example 21, N-(3-chloro-1-((6-cyclopropylpyridin-2-yl)methyl)-1H-indazol-4-yl)-7-(2-(4-isopropylpiperazin-1-yl)ethoxy)imidazo[1,2-a]pyridine-3-carboxamide], the IC50 came out at 12 nM at cFMS, 124 nM on PDGFR beta [1] and 46.6 nM on c-KIT.

`Cc1cccc(Cn2nc(C)c3c(NC(=O)c4cnc5cc(OCCO)ccn45)cccc32)n1` [Example 57, 7-(2-hydroxyethoxy)-N-(3-methyl-1-((6-methylpyridin-2-yl)methyl)-1H-indazol-4-yl)imidazo[1,2-a]pyridine-3-carboxamide di-hydrochloride salt]: the IC50 on cFMS amounted to 40.2 nM; against PDGFR beta [1], 658 nM; on c-KIT, 1270 nM.

`Cc1cccc(Cn2nc(C)c3c(NC(=O)c4cnc5cc(CCN6CCCC6)ccn45)cccc32)n1` [Example 77, N-(3-methyl-1-((6-methylpyridin-2-yl)methyl)-1H-indazol-4-yl)-7-(2-(pyrrolidin-1-yl)ethyl)imidazo[1,2-a]pyridine-3-carboxamide]: the values for the IC50 on cFMS, on PDGFR beta [1] and on c-KIT were 78.1 nM, not below 1000 nM and 5000 nM, respectively.

Turning to `O=C(Nc1cccc2c1cnn2Cc1ccccc1)c1cnc2cc(O)ccn12` [Example 92, N-(1-benzyl-1H-indazol-4-yl)-7-hydroxyimidazo[1,2-a]pyridine-3-carboxamide], the IC50 at cFMS came out at 26 nM; at PDGFR beta [1], 137 nM; at c-KIT, 205 nM.

Consider `C[C@H]1CN(CCOc2ccn3c(C(=O)Nc4cccc5c4c(Cl)nn5Cc4cccc(C5CC5)n4)cnc3c2)CCN1C` [Example 23, (S)—N-(3-chloro-1-((6-cyclopropylpyridin-2-yl)methyl)-1H-indazol-4-yl)-7-(2-(3,4-dimethylpiperazin-1-yl)ethoxy)imidazo[1,2-a]pyridine-3-carboxamide], for which the values for the half-maximal inhibitory concentration (IC50) on cFMS, at PDGFR beta [1] and on c-KIT were 21.1 nM, 239 nM and 65.7 nM, respectively.

For the compound `Cc1nn(Cc2cccc(C(C)(C)C)n2)c2cccc(NC(=O)c3cnc4cc(OCCN5CCN(C)[C@@H](C)C5)ccn34)c12` [Example 31, (S)—N-(1-((6-tert-butylpyridin-2-yl)methyl)-3-methyl-1H-indazol-4-yl)-7-(2-(3,4-dimethylpiperazin-1-yl)ethoxy)imidazo[1,2-a]pyridine-3-carboxamide], the IC50 at cFMS worked out at 102 nM; against PDGFR beta [1], 335 nM; at c-KIT, 67.1 nM.

Regarding `Cc1nn(Cc2cccc(C3CC3)n2)c2ccc(F)c(NC(=O)c3cnc4cc(OCCN5CCN(C)[C@@H](C)C5)ccn34)c12` [Example 43, (S)—N-(1-((6-cyclopropylpyridin-2-yl)methyl)-5-fluoro-3-methyl-1H-indazol-4-yl)-7-(2-(3,4-dimethylpiperazin-1-yl)ethoxy)imidazo[1,2-a]pyridine-3-carboxamide], the IC50 was determined as 23.4 nM at cFMS, 84.5 nM at PDGFR beta [1] and 58.9 nM at c-KIT.

As for `Cc1nn(Cc2cccc(CC(C)C)n2)c2cccc(NC(=O)c3cnc4cc(OCCN5CCN(C)[C@@H](C)C5)ccn34)c12` [Example 40, (S)-7-(2-(3,4-dimethylpiperazin-1-yl)ethoxy)-N-(1-((6-isobutylpyridin-2-yl)methyl)-3-methyl-1H-indazol-4-yl)imidazo[1,2-a]pyridine-3-carboxamide], the IC50 at cFMS was found to be 55.8 nM; on PDGFR beta [1], 37.2 nM; on c-KIT, 95 nM.

Turning to `Cc1nn(Cc2cccc(C3CCCC3)n2)c2cccc(NC(=O)c3cnc4cc(OCCN5CCN(C)[C@@H](C)C5)ccn34)c12` [Example 33, (S)—N-(1-((6-cyclopentylpyridin-2-yl)methyl)-3-methyl-1H-indazol-4-yl)-7-(2-(3,4-dimethylpiperazin-1-yl)ethoxy)imidazo[1,2-a]pyridine-3-carboxamide], the half-inhibitory concentration (IC50) was 41.5 nM on cFMS, 65.8 nM on PDGFR beta [1] and 22.6 nM at c-KIT.

As to `COc1ccc2ncc(C(=O)Nc3cccc4c3cnn4Cc3ccccc3)n2c1` [Example 159, N-(1-benzyl-1H-indazol-4-yl)-6-methoxyimidazo[1,2-a]pyridine-3-carboxamide], the IC50 worked out at 26.6 nM on cFMS, 64.3 nM against PDGFR beta [2] and 9.8 nM on c-KIT.

On to `Cc1nc(Cn2nc(C)c3c(NC(=O)c4cnc5cc(OCCN6CCN(C)CC6)ccn45)cccc32)cs1` [Example 88, N-(3-methyl-1-((2-methylthiazol-4-yl)methyl)-1H-indazol-4-yl)-7-(2-(4-methylpiperazin-1-yl)ethoxy)imidazo[1,2-a]pyridine-3-carboxamide], for which the half-maximal inhibitory concentration (IC50) at cFMS turned out to be 15.6 nM; on PDGFR beta [2], 180 nM; on c-KIT, 510 nM.

In the case of `COCCOc1ccn2c(C(=O)Nc3cccc4c3cnn4CC3CC3)cnc2c1` [Example 110, N-(1-(cyclopropylmethyl)-1H-indazol-4-yl)-7-(2-methoxyethoxy)imidazo[1,2-a]pyridine-3-carboxamide], the IC50 on cFMS was found to be 380 nM; at PDGFR beta [2], 1000 nM; on c-KIT, 168 nM.
